Measured values taken from ChEMBL document CHEMBL3994575, “Helixconstraints and amino acid substitution in GLP-1 increase cAMP and insulin secretion but not beta-arrestin 2 signaling” (Eur J Med Chem, 2017).
Positions of bridges follow the written chain, without caps; N, C: chain ends. Residues, ends and D or L forms follow the SMILES beside them.

Experiments:
[1] = target: T1, Glucagon-like peptide 1 receptor (Rattus norvegicus, UniProt P32301); assay: Agonist activity at GLP1R in rat INS-1 cells assessed as increase in glucose-stimulated insulin secretion after 1 hr by HTRF assay; assay type: cell-based
T1 sequence (P32301 whole entry): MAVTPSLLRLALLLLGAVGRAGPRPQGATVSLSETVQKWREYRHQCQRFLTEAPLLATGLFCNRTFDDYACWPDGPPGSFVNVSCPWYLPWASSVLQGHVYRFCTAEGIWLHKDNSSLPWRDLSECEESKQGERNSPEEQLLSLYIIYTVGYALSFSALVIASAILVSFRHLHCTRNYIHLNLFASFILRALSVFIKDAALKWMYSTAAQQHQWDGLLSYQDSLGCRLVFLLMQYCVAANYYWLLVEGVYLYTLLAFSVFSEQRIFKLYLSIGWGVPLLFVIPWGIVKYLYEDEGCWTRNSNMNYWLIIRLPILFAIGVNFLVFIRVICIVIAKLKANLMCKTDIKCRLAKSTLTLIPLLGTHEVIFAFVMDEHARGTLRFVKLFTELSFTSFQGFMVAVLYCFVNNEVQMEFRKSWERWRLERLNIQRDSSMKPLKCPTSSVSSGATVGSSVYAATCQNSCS

[2] = target: T2, Glucagon-like peptide 1 receptor (Homo sapiens, UniProt P43220); assay: Displacement of [125I]-GLP (7 to 36 residues) from human GLP1R expressed in CHO cell membranes incubated for 30 mins measured after 10 hrs by scintillation proximity assay
[3] = target: T2, Glucagon-like peptide 1 receptor; assay: Agonist activity at human GLP1R expressed in CHOK1 cells assessed as induction of beta-galactosidase-tagged beta-arrestin2 recruitment incubated for 90 mins by PathHunter enzyme complementation assay; assay type: cell-based
[4] = target: T2, Glucagon-like peptide 1 receptor; assay: Agonist activity at human GLP1R expressed in CHO cells assessed as cAMP accumulation incubated for 30 mins by LANCE assay; assay type: functional, cell-based

T2 sequence (P43220 whole entry, the tested form may be a part): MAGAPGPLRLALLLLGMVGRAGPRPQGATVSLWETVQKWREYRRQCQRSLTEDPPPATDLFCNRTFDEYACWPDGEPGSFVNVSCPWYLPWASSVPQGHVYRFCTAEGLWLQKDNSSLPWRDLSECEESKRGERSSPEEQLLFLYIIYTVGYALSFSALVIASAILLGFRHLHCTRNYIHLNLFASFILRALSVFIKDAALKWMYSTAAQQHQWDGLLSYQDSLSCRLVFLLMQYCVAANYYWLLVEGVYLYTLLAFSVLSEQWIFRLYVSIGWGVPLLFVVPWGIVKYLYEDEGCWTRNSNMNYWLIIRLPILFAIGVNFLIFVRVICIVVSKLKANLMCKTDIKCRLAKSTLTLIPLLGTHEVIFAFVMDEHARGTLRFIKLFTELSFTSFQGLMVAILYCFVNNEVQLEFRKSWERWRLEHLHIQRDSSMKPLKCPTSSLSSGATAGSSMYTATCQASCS

Row | Structure (SMILES) | EC50 [1] | Ki [2] | EC50 [3] | EC50 [4]
1 | CC[C@H](C)[C@H](NC(=O)[C@H](Cc1ccccc1)NC(=O)[C@H](CCC(=O)O)NC(=O)[C@H](CCCCN)NC(=O)[C@H](C)NC(=O)[C@H](C)NC(=O)[C@H](CCC(N)=O)NC(=O)CNC(=O)[C@H](CCC(=O)O)NC(=O)[C@H](CC(C)C)NC(=O)[C@H](Cc1ccc(O)cc1)NC(=O)[C@H](CO)NC(=O)[C@H](Cc1ccc(O)cc1)NC(=O)[C@@H](NC(=O)[C@H](CC(=O)O)NC(=O)[C@H](CO)NC(=O)[C@@H](NC(=O)[C@H](Cc1ccccc1)NC(=O)[C@@H](NC(=O)CNC(=O)[C@H](CCC(=O)O)NC(=O)[C@H](C)NC(=O)[C@@H](N)Cc1cnc[nH]1)[C@@H](C)O)[C@@H](C)O)C(C)C)C(=O)N[C@@H](C)C(=O)N[C@@H](Cc1c[nH]c2ccccc12)C(=O)N[C@@H](CC(C)C)C(=O)N[C@H](C(=O)N[C@@H](CCCCN)C(=O)NCC(=O)N[C@@H](CCCNC(=N)N)C(=O)NCC(N)=O)C(C)C | 16 nM | – | – | –
2 | CC[C@H](C)[C@H](NC(=O)[C@H](Cc1ccccc1)NC(=O)[C@H](CCC(=O)O)NC(=O)[C@H](CCCCN)NC(=O)[C@H](C)NC(=O)[C@H](C)NC(=O)[C@H](CCC(N)=O)NC(=O)CNC(=O)[C@H](CCC(=O)O)NC(=O)[C@H](CC(C)C)NC(=O)[C@H](Cc1ccc(O)cc1)NC(=O)[C@@H]1CC(=O)NCCCC[C@H](NC(=O)[C@@H](NC(=O)[C@H](Cc2ccccc2)NC(=O)[C@@H](NC(=O)CNC(=O)[C@H](CCC(=O)O)NC(=O)[C@H](C)NC(=O)[C@@H](N)Cc2cnc[nH]2)[C@@H](C)O)[C@@H](C)O)C(=O)N[C@@H](CC(=O)O)C(=O)N[C@@H](C(C)C)C(=O)N[C@@H](CO)C(=O)N1)C(=O)N[C@@H](C)C(=O)N[C@@H](Cc1c[nH]c2ccccc12)C(=O)N[C@@H](CC(C)C)C(=O)N[C@H](C(=O)N[C@@H](CCCCN)C(=O)NCC(=O)N[C@@H](CCCNC(=N)N)C(=O)NCC(N)=O)C(C)C (H-HAEGTFTKDVSDYLEGQAAKEFIAWLVKGRG-NH2; lactam 8-12) | 50 nM | – | – | –
3 | CC[C@H](C)[C@H](NC(=O)[C@H](Cc1ccccc1)NC(=O)[C@H](CCC(=O)O)NC(=O)[C@H](CCCCN)NC(=O)[C@H](C)NC(=O)[C@H](C)NC(=O)[C@H](CCC(N)=O)NC(=O)[C@H](C)NC(=O)[C@H](CCC(=O)O)NC(=O)[C@@H]1CC(=O)NCCCC[C@H](NC(=O)[C@H](CC(=O)O)NC(=O)[C@H](CO)NC(=O)[C@@H](NC(=O)[C@H](Cc2ccccc2)NC(=O)[C@@H](NC(=O)CNC(=O)[C@H](CCC(=O)O)NC(=O)[C@H](C)NC(=O)[C@@H](N)Cc2cnc[nH]2)[C@@H](C)O)[C@@H](C)O)C(=O)N[C@@H](CO)C(=O)N[C@@H](CO)C(=O)N[C@@H](Cc2ccc(O)cc2)C(=O)N1)C(=O)N[C@H]1CCCCNC(=O)C[C@@H](C(=O)NCC(=O)N[C@@H](CCCNC(=N)N)C(=O)NCC(N)=O)NC(=O)[C@H](C(C)C)NC(=O)[C@H](CC(C)C)NC(=O)[C@H](Cc2c[nH]c3ccccc23)NC1=O (H-HAEGTFTSDKSSYDEAQAAKEFIKWLVDGRG-NH2; lactam 10-14, 24-28) | 0.25 nM | 1.4 nM | 11 nM | 0.004 nM
4 | CC[C@H](C)[C@H](NC(=O)[C@H](Cc1ccccc1)NC(=O)[C@H](CCC(=O)O)NC(=O)[C@H](CCCCN)NC(=O)[C@H](C)NC(=O)[C@H](C)NC(=O)[C@H](CCC(N)=O)NC(=O)[C@@H](NC(=O)[C@H](CCC(=O)O)NC(=O)[C@H](CC(C)C)NC(=O)[C@H](Cc1ccc(O)cc1)NC(=O)[C@H](CO)NC(=O)[C@H](CO)NC(=O)[C@@H](NC(=O)[C@H](CC(=O)O)NC(=O)[C@H](CO)NC(=O)[C@@H](NC(=O)[C@H](Cc1ccccc1)NC(=O)[C@@H](NC(=O)CNC(=O)[C@H](CCC(=O)O)NC(=O)[C@H](C)NC(=O)[C@@H](N)Cc1cnc[nH]1)[C@@H](C)O)[C@@H](C)O)C(C)C)C(C)C)C(=O)N[C@H]1CCCCNC(=O)C[C@@H](C(=O)NCC(=O)N[C@@H](CCCNC(=N)N)C(=O)NCC(N)=O)NC(=O)[C@H](C(C)C)NC(=O)[C@H](CC(C)C)NC(=O)[C@H](Cc2c[nH]c3ccccc23)NC1=O (H-HAEGTFTSDVSSYLEVQAAKEFIKWLVDGRG-NH2; lactam 24-28) | – | 1.5 nM | 9 nM | 0.1 nM
5 | CC[C@H](C)[C@H](NC(=O)[C@H](Cc1ccccc1)NC(=O)[C@H](CCC(=O)O)NC(=O)[C@H](CCCCN)NC(=O)[C@H](C)NC(=O)[C@H](C)NC(=O)[C@H](CCC(N)=O)NC(=O)CNC(=O)[C@@H]1CCCN1C(=O)[C@H](CC(C)C)NC(=O)[C@H](Cc1ccc(O)cc1)NC(=O)[C@H](CO)NC(=O)[C@H](CO)NC(=O)[C@@H](NC(=O)[C@H](CC(=O)O)NC(=O)[C@H](CO)NC(=O)[C@@H](NC(=O)[C@H](Cc1ccccc1)NC(=O)[C@@H](NC(=O)CNC(=O)[C@H](CCC(=O)O)NC(=O)[C@H](C)NC(=O)[C@@H](N)Cc1cnc[nH]1)[C@@H](C)O)[C@@H](C)O)C(C)C)C(=O)N[C@H]1CCCCNC(=O)C[C@@H](C(=O)NCC(=O)N[C@@H](CCCNC(=N)N)C(=O)NCC(N)=O)NC(=O)[C@H](C(C)C)NC(=O)[C@H](CC(C)C)NC(=O)[C@H](Cc2c[nH]c3ccccc23)NC1=O (H-HAEGTFTSDVSSYLPGQAAKEFIKWLVDGRG-NH2; lactam 24-28) | 130 nM | > 50 nM | > 1000 nM | 20 nM

Further molecules by falling Ki [2], results first:

Row | EC50 [1] | Ki [2] | EC50 [3] | EC50 [4] | Structure (SMILES)
6 | – | 0.82 nM | 8.8 nM | 0.009 nM | CC[C@H](C)[C@H](NC(=O)[C@H](Cc1ccccc1)NC(=O)[C@H](CCC(=O)O)NC(=O)[C@H](CCCCN)NC(=O)[C@H](C)NC(=O)[C@H](C)NC(=O)[C@H](CCC(N)=O)NC(=O)[C@@H]1CCC(=O)NCCCC[C@H](NC(=O)[C@H](CO)NC(=O)[C@H](Cc2ccc(O)cc2)NC(=O)[C@H](CC(=O)O)NC(=O)[C@H](CO)NC(=O)[C@@H](NC(=O)[C@H](Cc2ccccc2)NC(=O)[C@@H](NC(=O)CNC(=O)[C@H](CCC(=O)O)NC(=O)[C@H](C)NC(=O)[C@@H](N)Cc2cnc[nH]2)[C@@H](C)O)[C@@H](C)O)C(=O)N[C@@H](Cc2ccc(O)cc2)C(=O)N[C@@H](CC(C)C)C(=O)N[C@@H](CCC(=O)O)C(=O)N1)C(=O)N[C@H]1CCCCNC(=O)C[C@@H](C(=O)NCC(=O)N[C@@H](CCCNC(=N)N)C(=O)NCC(N)=O)NC(=O)[C@H](C(C)C)NC(=O)[C@H](CC(C)C)NC(=O)[C@H](Cc2c[nH]c3ccccc23)NC1=O (H-HAEGTFTSDYSKYLEEQAAKEFIKWLVDGRG-NH2; lactam 12-16, 24-28)
7 | – | 0.49 nM | 3.4 nM | 0.023 nM | CC[C@H](C)[C@H](NC(=O)[C@H](Cc1ccccc1)NC(=O)[C@H](CCC(=O)O)NC(=O)[C@H](CCCCN)NC(=O)[C@H](C)NC(=O)[C@H](C)NC(=O)[C@H](CCC(N)=O)NC(=O)CNC(=O)[C@H](CCC(=O)O)NC(=O)[C@H](CC(C)C)NC(=O)[C@H](Cc1ccc(O)cc1)NC(=O)[C@H](CO)NC(=O)[C@H](CO)NC(=O)[C@H](Cc1ccc(O)cc1)NC(=O)[C@H](CC(=O)O)NC(=O)[C@H](CO)NC(=O)[C@@H](NC(=O)[C@H](Cc1ccccc1)NC(=O)[C@@H](NC(=O)CNC(=O)[C@H](CCC(=O)O)NC(=O)[C@H](C)NC(=O)[C@@H](N)Cc1cnc[nH]1)[C@@H](C)O)[C@@H](C)O)C(=O)N[C@H]1CCCCNC(=O)C[C@@H](C(=O)NCC(=O)N[C@@H](CCCNC(=N)N)C(=O)NCC(N)=O)NC(=O)[C@H](C(C)C)NC(=O)[C@H](CC(C)C)NC(=O)[C@H](Cc2c[nH]c3ccccc23)NC1=O (H-HAEGTFTSDYSSYLEGQAAKEFIKWLVDGRG-NH2; lactam 24-28)
8 | – | 0.47 nM | 4.6 nM | 0.011 nM | CC[C@H](C)[C@H](NC(=O)[C@H](Cc1ccccc1)NC(=O)[C@H](CCC(=O)O)NC(=O)[C@H](CCCCN)NC(=O)[C@H](C)NC(=O)[C@H](C)NC(=O)[C@H](CCC(N)=O)NC(=O)[C@H](C)NC(=O)[C@H](CCC(=O)O)NC(=O)[C@H](CC(C)C)NC(=O)[C@H](Cc1ccc(O)cc1)NC(=O)[C@H](CO)NC(=O)[C@H](CO)NC(=O)[C@H](Cc1ccc(O)cc1)NC(=O)[C@H](CC(=O)O)NC(=O)[C@H](CO)NC(=O)[C@@H](NC(=O)[C@H](Cc1ccccc1)NC(=O)[C@@H](NC(=O)CNC(=O)[C@H](CCC(=O)O)NC(=O)[C@H](C)NC(=O)[C@@H](N)Cc1cnc[nH]1)[C@@H](C)O)[C@@H](C)O)C(=O)N[C@H]1CCCCNC(=O)C[C@@H](C(=O)NCC(=O)N[C@@H](CCCNC(=N)N)C(=O)NCC(N)=O)NC(=O)[C@H](C(C)C)NC(=O)[C@H](CC(C)C)NC(=O)[C@H](Cc2c[nH]c3ccccc23)NC1=O (H-HAEGTFTSDYSSYLEAQAAKEFIKWLVDGRG-NH2; lactam 24-28)
